Results: the NIST ThermoML archive (doi:10.1016/j.tca.2016.05.007)
Numbers after ± are expanded uncertainties.

Assay: molar heat capacity at constant pressure
Settings: 101.33 kPa, Small (less than 1 g) adiabatic calorimetry

COc1ccc(C2(c3ccc(OC)c(C)c3)OC(=O)c3ccccc32)cc1C [3,3-bis(4-methoxy-3-methylphenyl)-1(3H)-isobenzofuranone]
Settings | molar heat capacity at constant pressure [J/K/mol]
51.48 K, Glass | 100.37 ± 0.47
52.14 K, Crystal | 99.73 ± 0.47
52.74 K, Glass | 103.27 ± 0.48
53.41 K, Crystal | 102.49 ± 0.48
54 K, Glass | 105.75 ± 0.49
54.68 K, Crystal | 105 ± 0.49
55.27 K, Glass | 108.28 ± 0.5
55.95 K, Crystal | 107.6 ± 0.5
56.53 K, Glass | 110.76 ± 0.51
57.22 K, Crystal | 109.68 ± 0.51
57.79 K, Glass | 113.22 ± 0.52
58.5 K, Crystal | 112.22 ± 0.52
59.06 K, Glass | 115.64 ± 0.53
59.77 K, Crystal | 114.59 ± 0.53
60.33 K, Glass | 117.82 ± 0.54
61.05 K, Crystal | 116.87 ± 0.54
61.6 K, Glass | 120.17 ± 0.55
62.33 K, Crystal | 119.39 ± 0.55
62.87 K, Glass | 122.44 ± 0.56
63.61 K, Crystal | 121.85 ± 0.56
64.15 K, Glass | 124.78 ± 0.57
64.89 K, Crystal | 123.86 ± 0.57
65.43 K, Glass | 126.76 ± 0.58
66.18 K, Crystal | 125.9 ± 0.57
66.72 K, Glass | 129.06 ± 0.59
67.47 K, Crystal | 128.08 ± 0.58
68.01 K, Glass | 131.4 ± 0.6
68.77 K, Crystal | 130.54 ± 0.59
69.3 K, Glass | 133.63 ± 0.61
70.07 K, Crystal | 132.99 ± 0.6
70.6 K, Glass | 136.05 ± 0.62
71.38 K, Crystal | 135.25 ± 0.61
71.91 K, Glass | 138.21 ± 0.62
72.69 K, Crystal | 137.49 ± 0.62
73.22 K, Glass | 140.28 ± 0.63
74.01 K, Crystal | 139.48 ± 0.63
74.59 K, Glass | 142.77 ± 0.64
75.33 K, Crystal | 141.75 ± 0.64
76.03 K, Glass | 145.08 ± 0.65
76.66 K, Crystal | 144.1 ± 0.65
77.47 K, Glass | 147.57 ± 0.66
77.99 K, Crystal | 146.27 ± 0.66
78.91 K, Glass | 149.7 ± 0.67
79.33 K, Crystal | 148.82 ± 0.67
80.36 K, Glass | 152.24 ± 0.68
80.67 K, Crystal | 150.88 ± 0.68
81.81 K, Glass | 154.61 ± 0.69
82.09 K, Crystal | 152.82 ± 0.68
83.27 K, Glass | 156.85 ± 0.7
83.57 K, Crystal | 155.34 ± 0.69
84.73 K, Glass | 159.35 ± 0.71
85.06 K, Crystal | 157.59 ± 0.7
86.19 K, Glass | 161.67 ± 0.72
86.55 K, Crystal | 160.21 ± 0.71
87.66 K, Glass | 164.03 ± 0.73
88.04 K, Crystal | 162.51 ± 0.72
89.14 K, Glass | 166.13 ± 0.74
89.54 K, Crystal | 164.72 ± 0.73
90.62 K, Glass | 168.74 ± 0.71
91.05 K, Crystal | 167.41 ± 0.7
92.11 K, Glass | 171.18 ± 0.71
92.56 K, Crystal | 169.71 ± 0.71
93.61 K, Glass | 173.56 ± 0.72
94.08 K, Crystal | 172.05 ± 0.72
95.11 K, Glass | 176.28 ± 0.73
95.6 K, Crystal | 174.26 ± 0.72
96.62 K, Glass | 178.27 ± 0.74
97.14 K, Crystal | 176.64 ± 0.73
98.14 K, Glass | 180.03 ± 0.74
98.67 K, Crystal | 178.97 ± 0.74
99.67 K, Glass | 182.72 ± 0.75
100.22 K, Crystal | 181.39 ± 0.75
101.2 K, Glass | 185 ± 0.76
101.77 K, Crystal | 183.97 ± 0.76
102.74 K, Glass | 186.83 ± 0.77
103.33 K, Crystal | 186.52 ± 0.77
104.29 K, Glass | 189.85 ± 0.78
104.9 K, Crystal | 188.69 ± 0.77
105.85 K, Glass | 192.15 ± 0.79
106.48 K, Crystal | 190.79 ± 0.78
107.42 K, Glass | 194.15 ± 0.79
108.07 K, Crystal | 193.1 ± 0.79
109 K, Glass | 196.63 ± 0.8
109.72 K, Crystal | 195.77 ± 0.8
110.58 K, Glass | 199.21 ± 0.81
111.45 K, Crystal | 198.35 ± 0.81
112.18 K, Glass | 201.62 ± 0.82
113.19 K, Crystal | 200.89 ± 0.82
113.78 K, Glass | 204.03 ± 0.83
114.95 K, Crystal | 203.39 ± 0.82
115.4 K, Glass | 206.27 ± 0.83
116.73 K, Crystal | 205.7 ± 0.83
117.1 K, Glass | 208.63 ± 0.84
118.52 K, Crystal | 209.32 ± 0.85
118.89 K, Glass | 211.16 ± 0.85
120.34 K, Crystal | 211.71 ± 0.85
120.69 K, Glass | 213.89 ± 0.86
